Experimental data taken from PubChem BioAssay AID256 (DTP/NCI, 2004).
Several values for one entry are separate records, joined by “and”; a condition that tells them apart may be missing. Identical values can stand only once. Toxic doses and inconclusive results are not listed. The calls were made as follows: active = survival T/C of 150% or more; inactive = T/C below 125% in these data.

Tested on: CD2F1 mice, L1210 leukemia ip, survival T/C
Experiment: NCI In Vivo Anticancer Drug Screen. Data for tumor model L1210 Leukemia (intraperitoneal) in CD2F1 (CDF1) mice
Conditions: higher = longer survival
Outline: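 Compound-dosed mice with transplantable tumor versus matched vehicle controls; endpoint ratio T/C reported.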

[1] = endpoint: mean survival time, dose: 25.0 mg/kg/injection, schedule: Q01DX009 (ip), vehicle: saline with Tween-80
[2] = endpoint: mean survival time, dose: 50.0 mg/kg/injection, schedule: Q01DX009 (ip), vehicle: saline with Tween-80
[3] = endpoint: mean survival time, dose: 100.0 mg/kg/injection, schedule: Q01DX009 (ip), vehicle: saline with Tween-80

Measured: T/C

C[C@@H]1C[C@@H]([C@H](O)CC2CC(=O)NC(=O)C2)C(=O)[C@@H](C)C1
inactive: endpoint: mean survival time, dose: 5.0 mg/kg/injection, schedule: Q01DX009 (ip), vehicle: saline 104 % of control and 109 % of control | endpoint: mean survival time, dose: 10.0 mg/kg/injection, schedule: Q01DX007 (ip), vehicle: saline 107 % of control | endpoint: mean survival time, dose: 10.0 mg/kg/injection, schedule: Q03DX003 (ip), vehicle: saline 96 % of control | endpoint: mean survival time, dose: 10.0 mg/kg/injection, schedule: Q04DX003 (ip), vehicle: saline 100 % of control | endpoint: mean survival time, dose: 20.0 mg/kg/injection, schedule: Q01DX007 (ip), vehicle: saline 107 % of control | endpoint: mean survival time, dose: 20.0 mg/kg/injection, schedule: Q03DX003 (ip), vehicle: saline 100 % of control | endpoint: mean survival time, dose: 20.0 mg/kg/injection, schedule: Q04DX003 (ip), vehicle: saline 100 % of control | endpoint: mean survival time, dose: 40.0 mg/kg/injection, schedule: Q01DX007 (ip), vehicle: saline 115 % of control | endpoint: mean survival time, dose: 40.0 mg/kg/injection, schedule: Q03DX003 (ip), vehicle: saline 104 % of control | endpoint: mean survival time, dose: 40.0 mg/kg/injection, schedule: Q04DX003 (ip), vehicle: saline 106 % of control | endpoint: mean survival time, dose: 80.0 mg/kg/injection, schedule: Q01DX009 (ip), vehicle: saline 120 % of control | endpoint: mean survival time, dose: 160.0 mg/kg/injection, schedule: Q01DX009 (ip), vehicle: saline 89 % of control | endpoint: median survival time, dose: 12.5 mg/kg/injection, schedule: Q01DX009 (ip), vehicle: saline 109 % of control | endpoint: median survival time, dose: 25.0 mg/kg/injection, schedule: Q01DX009 (ip), vehicle: saline 114 % of control and 119 % of control | endpoint: median survival time, dose: 200.0 mg/kg/injection, schedule: Q01DX009 (ip), vehicle: saline 101 % of control

C=CCNC(=O)C[n+]1cccc(C(=O)Nc2ccc(Cl)cc2)c1
inactive: [1] 97 % of control | [2] 96 % of control | [3] 102 % of control | endpoint: mean survival time, dose: 100.0 mg/kg/injection, schedule: Q04DX003 (ip), vehicle: saline with Tween-80 107 % of control

COCCCNCCCN1CC1
inactive: endpoint: mean survival time, dose: 16.62 mg/kg/injection, schedule: Q01DX009 (ip), vehicle: saline 115 % of control | endpoint: mean survival time, dose: 31.25 mg/kg/injection, schedule: Q01DX009 (ip), vehicle: saline 107 % of control | endpoint: mean survival time, dose: 62.5 mg/kg/injection, schedule: Q01DX009 (ip), vehicle: saline 94 % of control

N#Cc1cccc(/C=C/c2ccc(S(=O)(=O)F)cc2)c1
inactive: endpoint: mean survival time, dose: 100.0 mg/kg/injection, schedule: Q01DX001 (ip), vehicle: other 95 % of control and 102 % of control | endpoint: mean survival time, dose: 100.0 mg/kg/injection, schedule: Q04DX002 (ip), vehicle: other 92 % of control and 98 % of control | endpoint: mean survival time, dose: 100.0 mg/kg/injection, schedule: Q04DX003 (ip), vehicle: other 100 % of control and 111 % of control | endpoint: mean survival time, dose: 200.0 mg/kg/injection, schedule: Q01DX001 (ip), vehicle: other 88 % of control and 102 % of control | endpoint: mean survival time, dose: 200.0 mg/kg/injection, schedule: Q04DX002 (ip), vehicle: other 101 % of control and 107 % of control | endpoint: mean survival time, dose: 200.0 mg/kg/injection, schedule: Q04DX003 (ip), vehicle: other 99 % of control and 105 % of control | endpoint: mean survival time, dose: 400.0 mg/kg/injection, schedule: Q01DX001 (ip), vehicle: other 92 % of control and 103 % of control | endpoint: mean survival time, dose: 400.0 mg/kg/injection, schedule: Q04DX002 (ip), vehicle: other 93 % of control and 107 % of control

COc1cc(N=CNc2cc(OC)n[n+]([O-])c2)c[n+]([O-])n1
inactive: endpoint: mean survival time, dose: 12.5 mg/kg/injection, schedule: Q04DX002 (ip), vehicle: saline with Tween-80 111 % of control | endpoint: mean survival time, dose: 25.0 mg/kg/injection, schedule: Q04DX002 (ip), vehicle: saline with Tween-80 86 % of control | endpoint: mean survival time, dose: 50.0 mg/kg/injection, schedule: Q04DX002 (ip), vehicle: saline with Tween-80 101 % of control

COc1ccc(-c2c(O)c3ccc(OC)cc3oc2=O)cc1
inactive: [1] 96 % of control | [2] 108 % of control | [3] 108 % of control

COc1cc(-c2ccc(N=Nc3ccc4c(S(=O)(=O)O)cc(S(=O)(=O)O)c(N)c4c3O)c(OC)c2)ccc1N=Nc1ccc2c(S(=O)(=O)O)cc(S(=O)(=O)O)c(N)c2c1O
inactive: endpoint: mean survival time, dose: 6.25 mg/kg/injection, schedule: Q01DX009 (ip), vehicle: saline 100 % of control | endpoint: mean survival time, dose: 12.5 mg/kg/injection, schedule: Q01DX009 (ip), vehicle: saline 100 % of control | endpoint: mean survival time, dose: 25.0 mg/kg/injection, schedule: Q01DX009 (ip), vehicle: saline 105 % of control
